Usually CC50 stands for the concentration at which the toxic effect on the cells reaches its halfway point. A word on the Inhibition: it is how much of the control response was suppressed. Lower therefore signals a response near the control. As usually defined, the IC50 is the concentration needed to halve the response being measured. What is called inhibition is the change of the read-out against control, counted positive when it falls. High values mean a strong effect, low ones a weak effect.

The values below come from ChEMBL document CHEMBL3832761, “MMV Pathogen Box Bioactivity Data” (2017).

Experiment [1] has as its system HepG2. As to the kind of experiment: HepG2 CC50 (uM) Cytotoxicity. The class given is functional. Conditions: Homo sapiens.
In experiment [2] the test system is HepG2. In words: Cytotoxicity data HepG2 CC20 (uM). In kind it is functional.
For experiment [3], the system named is Plasmodium berghei. As to the kind of experiment: Antimalarial activity: Liver Stage Plasmodium berghei sporozoite Luciferase assay: inhibition at 10 uM (%). In kind it is functional.
Experiment [4] concerns Plasmodium falciparum. In words: Antimalarial activity: Gametocytes Plasmodium falciparum NF54 Gametocytes Stage V IC50 (uM). In kind it is functional, organism-based.
In experiment [5] the test system is Plasmodium berghei. As to the kind of experiment: Antimalarial activity: Liver Stage Plasmodium berghei sporozoite Luciferase assay IC50 (uM). In kind it is functional, organism-based.
Experiment [6] deals with Plasmodium falciparum. As to the kind of experiment: Antimalarial activity: Gametocytes Plasmodium falciparum NF54 Gametocytes Stage V: inhibition at 10 uM (%). In kind it is functional.
Experiment [7] relates to Plasmodium falciparum. As to the kind of experiment: Antimalarial activity: Asexual Blood Stage Plasmodium falciparum 3D7 IC50 (uM). The class given is functional, organism-based.
Experiment [8] deals with Plasmodium falciparum. In words: Antimalarial activity: Asexual Blood Stage Plasmodium falciparum W2 IC50 (uM). The class given is functional, organism-based.
The subject of experiment [9] is Plasmodium falciparum. As to the kind of experiment: Antimalarial activity: Asexual Blood Stage Plasmodium falciparum Dd2 IC50 (uM). The class given is functional, organism-based.
Experiment [10] relates to HepG2. As to the kind of experiment: HepG2 inhibition at 10 uM (%) Cytotoxicity. The class given is functional. To be noted: Homo sapiens.

Regarding `N#Cc1ccc(-c2cnc(N)c(-c3ccc(C(N)=O)cc3)n2)cc1`, the CC50 in the experiment with HepG2 [1] was greater than 10 µM. In the experiment on HepG2 [2], this molecule displayed a CC20 of 12 µM. Moreover, the Inhibition turned out to be 100% in the experiment on Plasmodium berghei [3] and 87% in the experiment on Plasmodium falciparum [6]. For the same molecule, the IC50 was found to be 140 nM in the experiment with Plasmodium falciparum [4]; 280 nM in the experiment with Plasmodium berghei [5]; 90 nM with Plasmodium falciparum [7]; 210 nM in the experiment on Plasmodium falciparum [8]; 110 nM in the experiment with Plasmodium falciparum [9].
On to `O=C(Nc1ccccc1)c1ccc(-c2cc3ccncc3cc2OC2CCNCC2)s1`, for which the CC50 in the experiment with HepG2 [1] is greater than 7.5 µM. The molecule further had a CC20 in the experiment with HepG2 [2] of 3.65 µM. In addition, the Inhibition came out at 100% with Plasmodium berghei [3] and 96% with Plasmodium falciparum [6]. Besides, the IC50 was 2280 nM with Plasmodium falciparum [4]; 7370 nM in the experiment with Plasmodium berghei [5]; 570 nM in the experiment with Plasmodium falciparum [7]; 1560 nM with Plasmodium falciparum [8]; 1240 nM with Plasmodium falciparum [9].
In the experiment on HepG2 [1], `Cc1ccc2c(c1C)NC(=O)C21NN=C(c2ccccc2)S1` (stereo not given) showed a CC50 greater than 7.5 µM. For the same molecule, the CC20 in the experiment on HepG2 [2] is greater than 80 µM. The Inhibition is 100% with Plasmodium berghei [3] and 78% with Plasmodium falciparum [6]. Moreover, the concentration for half-maximal inhibition (IC50) turned out to be 900 nM in the experiment on Plasmodium falciparum [4]; 880 nM with Plasmodium berghei [5]; 1130 nM in the experiment on Plasmodium falciparum [7]; 890 nM with Plasmodium falciparum [8]; 2130 nM with Plasmodium falciparum [9].
`COc1ccc(-c2cnc3ccc(N4CCCC4)nn23)cc1OC` displayed a CC50 in the experiment on HepG2 [1] greater than 10 µM. For the same molecule, in the experiment on HepG2 [2], the CC20 came to 4.95 µM. Besides, the Inhibition in the experiment with Plasmodium berghei [3] came out at 100%; with Plasmodium falciparum [6] it was 91%. Also, the IC50 in the experiment on Plasmodium falciparum [4] came out at 410 nM; in the experiment on Plasmodium berghei [5], 630 nM; in the experiment with Plasmodium falciparum [7], 700 nM; in the experiment with Plasmodium falciparum [8], 860 nM; with Plasmodium falciparum [9], 670 nM.
Turning to `Nc1nccc2ccc(-c3ccc4nccn4c3)cc12`, the CC20 in the experiment on HepG2 [2] was 5.41 µM. For the same molecule, the Inhibition with Plasmodium berghei [3] amounted to 56%; in the experiment with Plasmodium falciparum [6], 95%. Besides, the IC50 was 400 nM in the experiment on Plasmodium falciparum [4], 160 nM with Plasmodium falciparum [7], 370 nM in the experiment with Plasmodium falciparum [8] and 260 nM in the experiment on Plasmodium falciparum [9]. This molecule also showed an inhibition at 10 µM in the experiment on HepG2 [10] of 50%.
`c1ccc(-c2cc(N3CCCCC3)c3ccccc3n2)nc1` returned a CC50 in the experiment on HepG2 [1] greater than 10 µM. In addition, in the experiment with HepG2 [2], the CC20 stood at 22.9 µM. The results for the Inhibition with Plasmodium berghei [3] and in the experiment with Plasmodium falciparum [6] were 92% and 93%, respectively. Also, the IC50 with Plasmodium falciparum [4] was 510 nM; with Plasmodium berghei [5], 9700 nM; with Plasmodium falciparum [7], greater than 2000 nM; in the experiment with Plasmodium falciparum [9], greater than 2000 nM.
In the experiment with HepG2 [1], `CCN(CC)S(=O)(=O)c1ccc(Cl)c(C(=O)Nc2ccc3nc(C)sc3c2)c1` came in with a CC50 greater than 10 µM. In the experiment on HepG2 [2], this molecule returned a CC20 of 10 µM. Moreover, the Inhibition worked out at 100% with Plasmodium berghei [3] and 86% in the experiment on Plasmodium falciparum [6]. The IC50 in the experiment with Plasmodium falciparum [4] was 3910 nM; with Plasmodium berghei [5] it was 1310 nM; in the experiment with Plasmodium falciparum [7], 500 nM; with Plasmodium falciparum [8], 590 nM; in the experiment on Plasmodium falciparum [9] it was 550 nM.
In the experiment on HepG2 [1], `NS(=O)(=O)c1cccc(-c2ccc3ncc(N4CCOCC4)nc3c2)c1` returned a CC50 greater than 10 µM. The same molecule registered a CC20 with HepG2 [2] of 7.61 µM. Besides, the Inhibition was determined as 100% in the experiment on Plasmodium berghei [3] and 92% in the experiment with Plasmodium falciparum [6]. Moreover, the IC50 with Plasmodium falciparum [4] is 1330 nM; with Plasmodium berghei [5], 1820 nM; in the experiment with Plasmodium falciparum [7], 1500 nM; in the experiment on Plasmodium falciparum [8] it was 1850 nM; in the experiment on Plasmodium falciparum [9], 1660 nM.
As for `CCn1ncc2c(NC3CCOCC3)c(CNC(=O)c3ccnn3C)c(C)nc21`, the CC50 in the experiment with HepG2 [1] is greater than 10 µM. In the experiment with HepG2 [2], the CC20 amounted to 24.5 µM. In addition, the Inhibition in the experiment on Plasmodium berghei [3] was 100%; in the experiment on Plasmodium falciparum [6], 89%. Also, the IC50 in the experiment with Plasmodium falciparum [4] worked out at 240 nM; in the experiment with Plasmodium berghei [5], 1600 nM; in the experiment on Plasmodium falciparum [7], 280 nM; in the experiment on Plasmodium falciparum [8], 600 nM; in the experiment with Plasmodium falciparum [9], 390 nM.
In turn, `Cc1ccc(NC(=O)c2nc[nH]c2C(=O)Nc2nc3ccccc3[nH]2)c(C)c1` came in with a CC50 in the experiment with HepG2 [1] greater than 10 µM. In the experiment on HepG2 [2], the CC20 worked out at 8.43 µM. Moreover, the results for the Inhibition in the experiment on Plasmodium berghei [3] and in the experiment with Plasmodium falciparum [6] were 99% and 88%, respectively. For the same molecule, the IC50 is greater than 8300 nM with Plasmodium falciparum [4]; greater than 10000 nM in the experiment on Plasmodium berghei [5]; 360 nM with Plasmodium falciparum [7]; 320 nM in the experiment on Plasmodium falciparum [8]; 230 nM in the experiment with Plasmodium falciparum [9].
As for `CN(C)c1cc(NC(=O)Nc2ccccc2)c2ccccc2n1`, the CC50 in the experiment on HepG2 [1] was greater than 10 µM. The same molecule returned a CC20 in the experiment with HepG2 [2] of 6.86 µM. In addition, the Inhibition in the experiment with Plasmodium berghei [3] worked out at 98%; in the experiment with Plasmodium falciparum [6], 88%. Moreover, the half-inhibitory concentration (IC50) in the experiment on Plasmodium falciparum [4] is 3130 nM; with Plasmodium berghei [5], greater than 10000 nM; with Plasmodium falciparum [7], 600 nM; with Plasmodium falciparum [8], 1230 nM; in the experiment on Plasmodium falciparum [9], 1100 nM.
In the case of `COc1cccc(CC(=O)N2CCC(n3c(C)nc4ccc(F)cc43)CC2)c1`, the CC20 in the experiment with HepG2 [2] was greater than 80 µM. In addition, the Inhibition in the experiment with Plasmodium berghei [3] stood at 38%; with Plasmodium falciparum [6] it was 72%. Further, the IC50 in the experiment with Plasmodium falciparum [4] is 310 nM; in the experiment on Plasmodium falciparum [7], 240 nM; in the experiment with Plasmodium falciparum [8], 250 nM; in the experiment with Plasmodium falciparum [9] it was 230 nM. Besides, the inhibition at 10 µM in the experiment on HepG2 [10] amounted to 0%.
`COc1ccc(-c2cnc3ccc(NCc4ccc(S(N)(=O)=O)cc4)nn23)cn1`: in the experiment on HepG2 [1], the CC50 was greater than 10 µM. Besides, in the experiment on HepG2 [2], the CC20 was 3.29 µM. The results for the Inhibition in the experiment with Plasmodium berghei [3] and with Plasmodium falciparum [6] were 100% and 82%, respectively. The IC50 with Plasmodium falciparum [4] stood at 1030 nM; in the experiment with Plasmodium berghei [5] it was 6800 nM; with Plasmodium falciparum [7] it was 490 nM; in the experiment on Plasmodium falciparum [8], 710 nM; with Plasmodium falciparum [9], 810 nM.
Take `CN1CCC(NCc2cccc(-c3ccc(S(=O)(=O)NCc4ccccc4)cc3)c2)CC1`: in the experiment on HepG2 [1], the CC50 is greater than 10 µM. In the experiment with HepG2 [2], the CC20 is 4.15 µM. Further, the figures for the Inhibition in the experiment on Plasmodium berghei [3] and in the experiment with Plasmodium falciparum [6] were 99% and 95%, respectively. Also, the IC50 in the experiment with Plasmodium falciparum [4] stood at 1420 nM; in the experiment on Plasmodium berghei [5], 4550 nM; with Plasmodium falciparum [7], 820 nM; in the experiment on Plasmodium falciparum [8], 2140 nM; in the experiment with Plasmodium falciparum [9], 2060 nM.
Take `CN(C(=O)c1cc2c(-c3cncnc3)cccc2[nH]1)c1ccccc1`: the CC50 in the experiment with HepG2 [1] is greater than 10 µM. This molecule yielded a CC20 in the experiment with HepG2 [2] of 6.04 µM. Further, the Inhibition in the experiment with Plasmodium berghei [3] came to 100%; with Plasmodium falciparum [6], 81%. Moreover, the IC50 in the experiment with Plasmodium falciparum [4] was found to be 570 nM; in the experiment on Plasmodium berghei [5], 1020 nM; in the experiment on Plasmodium falciparum [7], 720 nM; in the experiment with Plasmodium falciparum [8], 790 nM; with Plasmodium falciparum [9] it was 670 nM.
`COc1cc(-c2cc(-c3ccc(S(C)(=O)=O)cc3)cnc2N)ccc1O`: the CC50 in the experiment on HepG2 [1] is greater than 10 µM. This molecule also showed a CC20 with HepG2 [2] of 1.55 µM. The figures for the Inhibition with Plasmodium berghei [3] and with Plasmodium falciparum [6] were 100% and 94%, respectively. In addition, the IC50 is 70 nM with Plasmodium falciparum [4]; 2520 nM in the experiment on Plasmodium berghei [5]; 100 nM in the experiment on Plasmodium falciparum [7]; 100 nM with Plasmodium falciparum [8]; 140 nM in the experiment on Plasmodium falciparum [9].
For `O=C(Nc1ccc(N2CCNCC2)cc1)c1ccn2ncc(-c3cccc(Cl)c3)c2n1`, in the experiment on HepG2 [1], the CC50 is greater than 10 µM. In the experiment with HepG2 [2], this molecule yielded a CC20 of 0.76 µM. For the same molecule, the figures for the Inhibition in the experiment with Plasmodium berghei [3] and with Plasmodium falciparum [6] were 96% and 97%, respectively. In addition, the IC50 in the experiment with Plasmodium falciparum [4] is 620 nM; with Plasmodium berghei [5], greater than 10000 nM; with Plasmodium falciparum [7], 780 nM; in the experiment with Plasmodium falciparum [8], 1400 nM; in the experiment with Plasmodium falciparum [9], 1190 nM.
